Measurements reported in patent publication US9718806B2, “Quinazoline inhibitors of activating mutant forms of epidermal growth factor receptor” (AstraZeneca AB, priority 2013, dated 2017).
Counter-ions that a name gives are not always drawn.

How the values were obtained:
[1] = Assay 2: brain blood barrier penetration assay (short oral absorption model plus in vitro blood and brain binding); format: in vivo; settings: rat, male Han Wistar rats, oral 2 mg/kg, Kp,uu=AUC (brain)/AUC (blood)×(fu,brain/fu.blood)
Procedure: Assay 2: Brain Blood Barrier Penetration Assay
It is believed that Kp,uu, the relationship between concentrations of unbound drug in brain and in blood, is the key to prediction of CNS action and should be the main parameter measured and optimized for in drug discovery (Di L et al., Journal of Medicinal Chemistry [2013], 56: 2-12).
In vitro blood and brain binding assay was carried out on a HT-Dialysis plate (Gales Ferry, Conn.) with semi-permeable membrane. Diluted blood (1:1 with DPBS pH7.4) and brain homogenate (1:3 with DPBS pH7.4) were spiked with 5 μM test compound (in triplicate) and dialyzed against equal volume of 150 μL 100 mM PBS buffer (pH7.4) at 37° C. for 4 hours in a slowly rotated plate. At the end of incubation, a 50 μL aliquot from the receiver side and a 5 μL from the donor chamber were taken. The 5 μL sample was further diluted with 45 μL of blank blood or brain homogenate. Paired samples were matrix-matched with either buffer or blank blood/brain homogenate and mixed for 2 min, and then precipitated with 150 μL cold acetonitrile with 100 ng/mL tolbutamide as internal standard. After centrifuging at 4000 rpm for 20 min, supernatant was diluted with 0.1% formic acid aqueous solution and analyzed for LC/MS/MS (API 4000, Applied Biosystems, Foster City). […]. D is dilution factor.
A Short oral absorption (SOA) model is an in-vivo screening model to identify brain penetration of a compound. […]
Standards were prepared by spiking blank blood, brain homogenate and artificial CSF covering 0.2 to 500 ng/mL. […] After 2 min vortex and 5 min centrifugation at 14,000 rpm, supernatant was analyzed by LC/MS/MS (API 4000, Applied Biosystems, Foster City). […] For brain and CSF samples, one standard curve was analyzed along with test samples.
Total brain levels, expressed as brain/blood ratio (Kp) were measured by AUCbrain/AUCblood in rodents after oral administration. Free fraction of test compound in biological matrix was determined by in vitro blood and brain binding assay. Kp,uu was calculated by the following equation: Kp,uu=AUC (brain)/AUC (blood)×(fu,brain/fu.blood).

endogenous p-EGFR = assay: Assay 1: cellular phosphorylation assay, overall statement; format: cell-based, human; settings: Assay 1, statement on the table
Excerpt: Assay 1: Cellular Phosphorylation Assay
The human lung cell line NCI-H3255 (L858R) was obtained from the American Type Culture Collection. The NCI-H3255 cells were maintained in BEBM media (Lonza; CC-3171), containing 10% fetal bovine serum (FBS) (Gibco; 10099-141), supplemented with BEGM kit (Lonza; CC-4175). The human lung cell line PC-9 (Exon 19 deletion EGFR) was obtained from the American Type Culture Collection. PC-9 cells were maintained in RPMI 1640 (Gibco; 22400-089), containing 10% fetal bovine serum. The human lung cell line NCI-H838 (EGFR wild type) was obtained from the American Type Culture Collection. NCI-H838 cells were maintained in RPMI 1640 (Gibco; 22400-089), containing 10% fetal bovine serum.
All cells were grown in a humidified incubator at 37° C. with 5% CO2. Assays to measure cellular phosphorylation of endogenous p-EGFR in cell lysates were carried out according to the protocol described in the PathScan® Phospho-EGF Receptor (Tyr1068) Sandwich ELISA Kit (Cell Signalling kit catalogue number #7240).
100 μL of cells were seeded (32000 cells/well) in RPMI 1640+1% fetal bovine serum in Corning Costar, 96 well cell culture plates and incubated at 37° C. with 5% CO2 overnight. Cells were acoustically dosed using a […], with compounds serially diluted in 100% DMSO. Cell plates were incubated for a further 4 h after the compounds were added, (for NCI-H838: rhEGF (R&D catalogue number#236-EG) was added to cell plate with final concentration 100 ng/ml rhEGF to stimulate 5 minutes), then following aspiration of medium, 110 μL IP lysis buffer (IP lysis buffer: add 1:100 phosphatase inhibitor cocktail 2&3 (Sigma catalogue number P5726&P0044), 1:100 protease inhibitor cocktail (Sigma catalogue number P8340) to Pierce IP lysis buffer (Thermo catalogue number #87788)) was added to each well. The plates were put at 4° C. with rotation 300 rpm for 0.5-1 hour. […] 100 μl stop solution (Cell Signalling kit catalogue number#7240) was added to the plates and absorbance read at 450 nm within 30 minutes on SpectraMax M5e plate reader. […]

Row | Kp uu ([1]; brain / blood (unbound)) | Structure (SMILES) | Kp uu ([1]; in vivo) | potency compared with gefitinib and erlotinib (endogenous p-EGFR)
1 | – | COc1cc2ncnc(Nc3cccc(Cl)c3F)c2cc1OC(=O)N1CCN(C)C[C@H]1C [Example 1, 4-[(3-Chloro-2-fluorophenyl)amino]-7-methoxyquinazolin-6-yl (2R)-2,4-dimethylpiperazine-1-carboxylate] | 1.3 | comparable potency to gefitinib and erlotinib
2 | – | COc1cc2ncnc(Nc3cccc(Cl)c3F)c2cc1OC(=O)N1CCN(C)C[C@H]1C [Example 2, 4-[(3-Chloro-2-fluorophenyl)amino]-7-methoxyquinazolin-6-yl (2R)-2,4-dimethylpiperazine-1-carboxylate hydrochloride] | – | comparable potency to gefitinib and erlotinib
3 | 1.6 | COc1cc2ncnc(Nc3cccc(Cl)c3F)c2cc1OC(=O)N1CCN(C)C[C@@H]1C [Example 3, 4-[(3-Chloro-2-fluorophenyl)amino]-7-methoxyquinazolin-6-yl (2S)-2,4-dimethylpiperazine-1-carboxylate] | – | comparable potency to gefitinib and erlotinib
4 | 0.12 | CNC(=O)CN1CCC(Oc2cc3c(Nc4cccc(Cl)c4F)ncnc3cc2OC)CC1 [sapitinib, reference compound] | – | –
